{"source": "patent US10294202B2", "about": "“Pyrrolidinones as herbicides” (FMC Corporation, priority 2013, dated 2019)", "experiment_in_all_cases": "Test D pre-/postemergence herbicide test", "key": {"[1]": {"test_system": "galium", "type": "in vivo, Galium aparine", "conditions": "for Plant response rating: Galium, scale 0 to 100; for Plant response rating, Galium: scale 0 to 100 (0 no effect, 100 complete control)", "source_text": "(§1) Seeds of plant species selected from bluegrass (annual bluegrass, Poa annua), blackgrass (Alopecurus myosuroides), canarygrass (littleseed canarygrass, Phalaris minor), chickweed (common chickweed, Stellaria media), galium (catchweed bedstraw, Galium aparine), bromegrass, downy (downy bromegrass, Bromus tectorum), field poppy (Papaver rhoeas), field violet (Viola arvensis), foxtail, green (green foxtail, Setaria viridis), deadnettle (henbit deadnettle, Lamium amplexicaule), ryegrass, Italian (Italian ryegrass, Lolium multiflorum), kochia (Kochia scoparia), lambsquarters (Chenopodium album), oilseed rape (Brassica napus), pigweed (Amaranthus retroflexus), chamomile (scentless chamomile, Matricaria inodora), Russian thistle (Salsola kali), speedwell (bird's-eye speedwell, Veronica persica), barley, spring (spring barley, Hordeum vulgare), wheat, spring (spring wheat, Triticum aestivum), buckwheat, wild (wild buckwheat, Polygonum convolvulus), mustard, wild (wild mustard, Sinapis arvensis), oat, wild (wild oat, Avena fatua), radish, wild (wild radish, Raphanus raphanistrum), […]), barley, winter (winter barley, Hordeum vulgare), and wheat, winter (winter wheat, Triticum aestivum) were planted into a silt loam soil and treated preemergence with test chemicals formulated in a non-phytotoxic solvent mixture which included a surfactant. At the same time, these species were planted in pots containing Redi-Earth® planting medium (Scotts Company, 14111 Scottslawn Road, Marysville, Ohio 43041) comprising spaghnum peat moss, vermiculite, wetting agent and starter nutrients and treated with postemergence applications of the test chemicals formulated in the same manner. Plants ranged in height from 2 to 18 cm (1- to 4-leaf stage). Treated plants and controls were maintained in a controlled growth environment for 7 to 21 days after which time all species were compared to controls and visually evaluated. Plant response ratings, summarized in Table D, are based on a scale of 0 to 100 where 0 is no effect and 100 is complete control. A dash (-) response means no test result."}, "[2]": {"test_system": "canarygrass", "type": "in vivo, Phalaris minor", "conditions": "for Plant response rating: Canarygrass, scale 0 to 100; for Plant response rating, Canarygrass: scale 0 to 100 (0 no effect, 100 complete control)", "source_text": "as §1"}, "[3]": {"test_system": "oilseed rape", "type": "in vivo, Brassica napus", "conditions": "for Plant response rating: Postemergence, Oilseed Rape, scale 0 to 100; for Plant response rating, Oilseed Rape: Preemergence, scale 0 to 100 (0 no effect, 100 complete control)", "source_text": "as §1"}, "[4]": {"test_system": "buckwheat, wild", "type": "in vivo, Polygonum convolvulus", "conditions": "for Plant response rating: Buckwheat, Wild, scale 0 to 100; for Plant response rating, Buckwheat, Wild: scale 0 to 100 (0 no effect, 100 complete control)", "source_text": "as §1"}, "[5]": {"test_system": "deadnettle", "type": "in vivo, Lamium amplexicaule", "conditions": "for Plant response rating: Deadnettle, scale 0 to 100; for Plant response rating, Deadnettle: scale 0 to 100 (0 no effect, 100 complete control)", "source_text": "as §1"}, "[6]": {"test_system": "blackgrass", "type": "in vivo, Alopecurus myosuroides", "conditions": "for Plant response rating: Blackgrass, scale 0 to 100; for Plant response rating, Blackgrass: scale 0 to 100 (0 no effect, 100 complete control)", "source_text": "as §1"}}, "data": [{"molecule": "O=C1NCC(c2ccc(F)c(F)c2)C1C(=O)Nc1cccc(F)c1", "note": "(racemic) [Compound 12]", "values": [{"measurement": "Plant response rating", "setting": "[1]; Postemergence, 16 g ai/ha", "result": 0}, {"measurement": "Plant response rating", "setting": "[1]; Postemergence, 31 g ai/ha", "result": 0}, {"measurement": "Plant response rating", "setting": "[1]; Postemergence, 62 g ai/ha", "result": 15}, {"measurement": "Plant response rating", "setting": "[1]; Postemergence, 125 g ai/ha", "result": 20}, {"measurement": "Plant response rating", "setting": "[1]; Postemergence, 250 g ai/ha", "result": 25}, {"measurement": "Plant response rating, Galium", "setting": "[1]; Preemergence, 31 g ai/ha", "result": 0}, {"measurement": "Plant response rating, Galium", "setting": "[1]; Preemergence, 62 g ai/ha", "result": 0}, {"measurement": "Plant response rating, Galium", "setting": "[1]; Preemergence, 16 g ai/ha", "result": 0}, {"measurement": "Plant response rating", "setting": "[1]; Preemergence, 125 g ai/ha", "result": 0}, {"measurement": "Plant response rating", "setting": "[1]; Preemergence, 250 g ai/ha", "result": 10}, {"measurement": "Plant response rating", "setting": "[2]; Postemergence, 16 g ai/ha", "result": 0}, {"measurement": "Plant response rating", "setting": "[2]; Postemergence, 31 g ai/ha", "result": 0}, {"measurement": "Plant response rating", "setting": "[2]; Postemergence, 62 g ai/ha", "result": 15}, {"measurement": "Plant response rating", "setting": "[2]; Postemergence, 125 g ai/ha", "result": 15}, {"measurement": "Plant response rating", "setting": "[2]; Postemergence, 250 g ai/ha", "result": 30}, {"measurement": "Plant response rating, Canarygrass", "setting": "[2]; Preemergence, 31 g ai/ha", "result": 0}, {"measurement": "Plant response rating, Canarygrass", "setting": "[2]; Preemergence, 62 g ai/ha", "result": 0}, {"measurement": "Plant response rating, Canarygrass", "setting": "[2]; Preemergence, 16 g ai/ha", "result": 0}, {"measurement": "Plant response rating", "setting": "[2]; Preemergence, 125 g ai/ha", "result": 20}, {"measurement": "Plant response rating", "setting": "[2]; Preemergence, 250 g ai/ha", "result": 40}, {"measurement": "Plant response rating", "setting": "[3]; 16 g ai/ha", "result": 10}, {"measurement": "Plant response rating", "setting": "[3]; 31 g ai/ha", "result": 10}, {"measurement": "Plant response rating", "setting": "[3]; 62 g ai/ha", "result": 10}, {"measurement": "Plant response rating", "setting": "[3]; 125 g ai/ha", "result": 20}, {"measurement": "Plant response rating", "setting": "[3]; 250 g ai/ha", "result": 25}, {"measurement": "Plant response rating, Oilseed Rape", "setting": "[3]; 31 g ai/ha", "result": 0}, {"measurement": "Plant response rating, Oilseed Rape", "setting": "[3]; 62 g ai/ha", "result": 10}, {"measurement": "Plant response rating, Oilseed Rape", "setting": "[3]; 125 g ai/ha", "result": 10}, {"measurement": "Plant response rating, Oilseed Rape", "setting": "[3]; 250 g ai/ha", "result": 20}, {"measurement": "Plant response rating, Oilseed Rape", "setting": "[3]; 16 g ai/ha", "result": 0}, {"measurement": "Plant response rating", "setting": "[4]; Postemergence, 16 g ai/ha", "result": 0}, {"measurement": "Plant response rating", "setting": "[4]; Postemergence, 31 g ai/ha", "result": 0}, {"measurement": "Plant response rating", "setting": "[4]; Postemergence, 62 g ai/ha", "result": 10}, {"measurement": "Plant response rating", "setting": "[4]; Postemergence, 125 g ai/ha", "result": 10}, {"measurement": "Plant response rating", "setting": "[4]; Postemergence, 250 g ai/ha", "result": 10}, {"measurement": "Plant response rating, Buckwheat, Wild", "setting": "[4]; Preemergence, 31 g ai/ha", "result": 0}, {"measurement": "Plant response rating, Buckwheat, Wild", "setting": "[4]; Preemergence, 62 g ai/ha", "result": 0}, {"measurement": "Plant response rating, Buckwheat, Wild", "setting": "[4]; Preemergence, 16 g ai/ha", "result": 0}, {"measurement": "Plant response rating", "setting": "[4]; Preemergence, 125 g ai/ha", "result": 0}, {"measurement": "Plant response rating", "setting": "[4]; Preemergence, 250 g ai/ha", "result": 100}, {"measurement": "Plant response rating", "setting": "[5]; Postemergence, 16 g ai/ha", "result": 0}, {"measurement": "Plant response rating", "setting": "[5]; Postemergence, 31 g ai/ha", "result": 0}, {"measurement": "Plant response rating", "setting": "[5]; Postemergence, 62 g ai/ha", "result": 10}, {"measurement": "Plant response rating", "setting": "[5]; Postemergence, 125 g ai/ha", "result": 15}, {"measurement": "Plant response rating", "setting": "[5]; Postemergence, 250 g ai/ha", "result": 20}, {"measurement": "Plant response rating, Deadnettle", "setting": "[5]; Preemergence, 31 g ai/ha", "result": 0}, {"measurement": "Plant response rating, Deadnettle", "setting": "[5]; Preemergence, 62 g ai/ha", "result": 0}, {"measurement": "Plant response rating, Deadnettle", "setting": "[5]; Preemergence, 16 g ai/ha", "result": 0}, {"measurement": "Plant response rating", "setting": "[5]; Preemergence, 125 g ai/ha", "result": 0}, {"measurement": "Plant response rating", "setting": "[5]; Preemergence, 250 g ai/ha", "result": 50}, {"measurement": "Plant response rating", "setting": "[6]; Postemergence, 16 g ai/ha", "result": 5}, {"measurement": "Plant response rating", "setting": "[6]; Postemergence, 31 g ai/ha", "result": 10}, {"measurement": "Plant response rating", "setting": "[6]; Postemergence, 62 g ai/ha", "result": 10}, {"measurement": "Plant response rating", "setting": "[6]; Postemergence, 125 g ai/ha", "result": 15}, {"measurement": "Plant response rating", "setting": "[6]; Postemergence, 250 g ai/ha", "result": 20}, {"measurement": "Plant response rating, Blackgrass", "setting": "[6]; Preemergence, 31 g ai/ha", "result": 0}, {"measurement": "Plant response rating, Blackgrass", "setting": "[6]; Preemergence, 62 g ai/ha", "result": 0}, {"measurement": "Plant response rating, Blackgrass", "setting": "[6]; Preemergence, 16 g ai/ha", "result": 0}, {"measurement": "Plant response rating", "setting": "[6]; Preemergence, 125 g ai/ha", "result": 0}, {"measurement": "Plant response rating", "setting": "[6]; Preemergence, 250 g ai/ha", "result": 0}]}, {"molecule": "O=C1NCC(c2cccc(C(F)(F)F)c2)C1C(=O)Nc1ccc(F)cc1F", "note": "(racemic) [Compound 207]", "values": [{"measurement": "Plant response rating, Galium", "setting": "[1]; Preemergence, 31 g ai/ha", "result": 55}, {"measurement": "Plant response rating, Galium", "setting": "[1]; Preemergence, 62 g ai/ha", "result": 60}, {"measurement": "Plant response rating, Galium", "setting": "[1]; Preemergence, 125 g ai/ha", "result": 45}, {"measurement": "Plant response rating", "setting": "[1]; Preemergence, 250 g ai/ha", "result": 20}, {"measurement": "Plant response rating, Canarygrass", "setting": "[2]; Preemergence, 31 g ai/ha", "result": 0}, {"measurement": "Plant response rating, Canarygrass", "setting": "[2]; Preemergence, 62 g ai/ha", "result": 5}, {"measurement": "Plant response rating, Canarygrass", "setting": "[2]; Preemergence, 125 g ai/ha", "result": 0}, {"measurement": "Plant response rating", "setting": "[2]; Preemergence, 250 g ai/ha", "result": 75}, {"measurement": "Plant response rating, Oilseed Rape", "setting": "[3]; 31 g ai/ha", "result": 0}, {"measurement": "Plant response rating, Oilseed Rape", "setting": "[3]; 62 g ai/ha", "result": 0}, {"measurement": "Plant response rating, Oilseed Rape", "setting": "[3]; 125 g ai/ha", "result": 0}, {"measurement": "Plant response rating, Oilseed Rape", "setting": "[3]; 250 g ai/ha", "result": 0}, {"measurement": "Plant response rating, Buckwheat, Wild", "setting": "[4]; Preemergence, 31 g ai/ha", "result": 0}, {"measurement": "Plant response rating, Buckwheat, Wild", "setting": "[4]; Preemergence, 62 g ai/ha", "result": 15}, {"measurement": "Plant response rating, Buckwheat, Wild", "setting": "[4]; Preemergence, 125 g ai/ha", "result": 25}, {"measurement": "Plant response rating", "setting": "[4]; Preemergence, 250 g ai/ha", "result": 35}, {"measurement": "Plant response rating, Deadnettle", "setting": "[5]; Preemergence, 31 g ai/ha", "result": 0}, {"measurement": "Plant response rating, Deadnettle", "setting": "[5]; Preemergence, 62 g ai/ha", "result": 0}, {"measurement": "Plant response rating, Deadnettle", "setting": "[5]; Preemergence, 125 g ai/ha", "result": 20}, {"measurement": "Plant response rating", "setting": "[5]; Preemergence, 250 g ai/ha", "result": 20}, {"measurement": "Plant response rating, Blackgrass", "setting": "[6]; Preemergence, 31 g ai/ha", "result": 0}, {"measurement": "Plant response rating, Blackgrass", "setting": "[6]; Preemergence, 62 g ai/ha", "result": 5}, {"measurement": "Plant response rating, Blackgrass", "setting": "[6]; Preemergence, 125 g ai/ha", "result": 20}, {"measurement": "Plant response rating", "setting": "[6]; Preemergence, 250 g ai/ha", "result": 75}]}]}
